{"source": "paper PMC3701070", "about": "(PLoS ONE, 2013)", "key": {"[1]": {"system": "pMEK and pERK in HCT-116 (wild-type BRAF, mutant KRAS) cells", "test": "Western blot, paradoxical MAPK activation in HCT-116 cells", "type": "cell-based, human", "settings": "100 or 300 nM dabrafenib, co-treatment with 50 nM or 5 nM trametinib, 1 h", "procedure": "Cells were lysed in 25 mM Tris-HCl pH 7.5, 2 mM EDTA, 2 mM EGTA, 1% Triton X-100, 0.1% SDS, 50 mM sodium-β-glycerophosphate, 2 mM Na3VO4, 12.5 mM sodium pyrophosphate, 2× Complete EDTA-free mini protease inhibitor tablets (Roche), 2× phosphatase inhibitor cocktails I and II (Sigma-Aldrich). Protein concentrations were determined by Bio-Rad DC™ or dye-based protein assays and lysates were resolved by SDS-PAGE (Invitrogen NuPAGE®) and transferred to PVDF membranes. Membranes were blocked with Odyssey® (LI-COR Biosciences) blocking buffer and incubated with primary antibodies overnight at 4°C. Blots were washed with PBS containing 0.1% Tween-20, incubated with secondary antibodies, and washed again prior to signal detection on a LI-COR Odyssey® reader.\nLysates were immunoblotted for total ERK (tERK) and dual-phosphorylated ERK (ppERK) (B)."}, "[2]": {"system": "HCT-116", "design": "method as in PMID 21245089", "settings": "HCT-116 cells; read-out: gIC50; cited from earlier work"}}, "data": [{"smiles": "CC(=O)Nc1cccc(-n2c(=O)n(C3CC3)c(=O)c3c(Nc4ccc(I)cc4F)n(C)c(=O)c(C)c32)c1", "note": "[trametinib, reference compound]", "values": [{"measurement": "effect on dabrafenib-induced pERK upregulation", "setting": "[1]", "value": "abolished"}, {"measurement": "IC50", "setting": "[2]", "value": 21, "unit": "nM"}]}]}
